These results are taken from publication PMC3483245, “Optimization of a direct spectrophotometric method to investigate the kinetics and inhibition of sialidases” (BMC Biochemistry, 2012).

Experiment [1] deals with pneumococcal sialidases. Also on record: method as in PMID 18835278. As to conditions: buffer substance; cited from earlier work.
The target in experiment [2] is T1, NanA (Streptococcus pneumoniae, UniProt P62576). Description: biochemical. It counts as biochemical. As to conditions: for inhibition of NanA (in words): modified direct method.
T1 sequence (P62576 54-1035): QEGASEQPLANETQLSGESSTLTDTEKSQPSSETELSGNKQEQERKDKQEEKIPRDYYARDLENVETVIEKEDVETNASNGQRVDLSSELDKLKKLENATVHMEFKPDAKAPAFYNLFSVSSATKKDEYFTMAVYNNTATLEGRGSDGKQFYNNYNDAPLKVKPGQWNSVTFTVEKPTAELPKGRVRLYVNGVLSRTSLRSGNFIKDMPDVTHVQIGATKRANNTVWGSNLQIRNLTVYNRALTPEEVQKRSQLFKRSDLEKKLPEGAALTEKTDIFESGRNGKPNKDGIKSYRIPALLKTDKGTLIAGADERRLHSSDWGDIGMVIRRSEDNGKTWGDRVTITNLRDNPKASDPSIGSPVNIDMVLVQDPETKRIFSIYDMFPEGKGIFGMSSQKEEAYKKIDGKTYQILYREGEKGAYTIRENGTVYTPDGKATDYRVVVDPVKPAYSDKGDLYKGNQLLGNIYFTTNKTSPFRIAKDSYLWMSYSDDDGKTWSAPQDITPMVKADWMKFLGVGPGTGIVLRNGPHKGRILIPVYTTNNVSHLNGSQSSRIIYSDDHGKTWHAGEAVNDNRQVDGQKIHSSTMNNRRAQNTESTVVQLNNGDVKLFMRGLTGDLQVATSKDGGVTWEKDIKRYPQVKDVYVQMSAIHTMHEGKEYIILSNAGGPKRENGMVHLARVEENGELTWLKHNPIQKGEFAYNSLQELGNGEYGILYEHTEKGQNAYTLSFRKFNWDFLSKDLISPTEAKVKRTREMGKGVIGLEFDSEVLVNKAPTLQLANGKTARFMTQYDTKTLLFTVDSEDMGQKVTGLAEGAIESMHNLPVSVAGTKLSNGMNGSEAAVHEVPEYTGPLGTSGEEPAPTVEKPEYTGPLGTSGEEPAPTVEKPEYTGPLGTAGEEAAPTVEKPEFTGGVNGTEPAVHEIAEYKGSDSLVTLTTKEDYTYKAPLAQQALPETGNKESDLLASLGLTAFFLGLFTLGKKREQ
Experiment [3] deals with T2, NanC (Streptococcus pneumoniae, UniProt A0A0H2UQE4). Kind of experiment: biochemical.
T2 sequence (A0A0H2UQE4 entry or part of it): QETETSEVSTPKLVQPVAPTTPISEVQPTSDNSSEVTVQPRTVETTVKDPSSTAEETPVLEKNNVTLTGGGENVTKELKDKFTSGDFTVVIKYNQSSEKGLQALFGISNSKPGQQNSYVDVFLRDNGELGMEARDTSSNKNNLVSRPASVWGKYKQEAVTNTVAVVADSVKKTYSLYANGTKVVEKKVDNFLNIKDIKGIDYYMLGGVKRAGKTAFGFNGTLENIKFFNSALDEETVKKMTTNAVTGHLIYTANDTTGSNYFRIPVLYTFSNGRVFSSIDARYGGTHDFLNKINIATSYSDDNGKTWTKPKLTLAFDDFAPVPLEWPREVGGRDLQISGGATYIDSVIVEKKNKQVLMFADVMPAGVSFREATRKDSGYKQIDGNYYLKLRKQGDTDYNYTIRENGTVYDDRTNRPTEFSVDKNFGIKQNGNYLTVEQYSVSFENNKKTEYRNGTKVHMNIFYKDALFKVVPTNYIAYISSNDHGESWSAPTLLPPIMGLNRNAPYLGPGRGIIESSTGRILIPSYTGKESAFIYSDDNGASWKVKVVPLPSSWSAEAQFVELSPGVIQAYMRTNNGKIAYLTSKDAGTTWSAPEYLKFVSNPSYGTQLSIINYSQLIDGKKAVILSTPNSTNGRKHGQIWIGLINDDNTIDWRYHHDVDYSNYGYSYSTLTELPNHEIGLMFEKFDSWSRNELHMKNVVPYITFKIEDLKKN
The target in experiment [4] is T3, NanB (Streptococcus pneumoniae serotype 4, UniProt Q54727). Description: biochemical.
T3 sequence (Q54727 30-697): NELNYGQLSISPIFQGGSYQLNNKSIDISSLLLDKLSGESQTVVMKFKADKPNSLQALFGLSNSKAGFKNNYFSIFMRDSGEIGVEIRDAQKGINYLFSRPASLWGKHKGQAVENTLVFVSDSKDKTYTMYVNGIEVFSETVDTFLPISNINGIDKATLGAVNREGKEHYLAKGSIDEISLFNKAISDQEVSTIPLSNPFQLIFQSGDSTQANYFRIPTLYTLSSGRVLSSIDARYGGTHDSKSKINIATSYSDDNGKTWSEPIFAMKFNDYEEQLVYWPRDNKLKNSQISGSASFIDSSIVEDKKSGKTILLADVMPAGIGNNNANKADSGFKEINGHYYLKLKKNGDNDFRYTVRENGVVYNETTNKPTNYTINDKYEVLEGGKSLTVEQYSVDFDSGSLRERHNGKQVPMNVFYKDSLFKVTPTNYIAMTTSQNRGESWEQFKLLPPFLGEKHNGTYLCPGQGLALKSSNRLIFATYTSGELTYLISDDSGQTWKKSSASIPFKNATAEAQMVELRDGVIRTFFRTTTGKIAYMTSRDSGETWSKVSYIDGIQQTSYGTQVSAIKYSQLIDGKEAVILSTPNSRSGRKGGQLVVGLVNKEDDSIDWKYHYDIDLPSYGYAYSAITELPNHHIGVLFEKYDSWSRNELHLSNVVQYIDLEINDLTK
Experiment [5] deals with T1, NanA. Kind of experiment: Hydrolysis of p-NP-Neu5Ac by NanA, direct spectrophotometric method. Particulars: 30°C, 20 mM MES pH 6.0, 400 nm. It counts as biochemical.
In experiment [6] the target is T2, NanC. Description: Hydrolysis of p-NP-Neu5Ac by NanC, direct spectrophotometric method. Particulars: 30°C, 20 mM MES pH 6.0, 400 nm. Type of experiment: biochemical.
The target in experiment [7] is T1, NanA. Description: Hydrolysis of p-NP-Neu5Ac by NanA, conventional indirect spectrophotometric method. It counts as biochemical. As to conditions: 37°C, stopped with 0.5 M Na2CO3 pH 9.0, 405 nm. Here is the method:
(§1) The activity of the sialidases was assayed colorimetrically and fluorometrically using the substrates p-NP-Neu5Ac (Sigma, St. Louis, Miss) and 4MU-Neu5Ac (Sigma, St- Louis, Miss), respectively. Conventional indirect assays were performed as previously described. Briefly, the reaction mixtures containing the substrates and up to 100 nM sialidase were incubated at 37°C and stopped by the addition of 0.5 M Na2CO3 pH 9.0 for the colorimetric assay or 0.25 M glycine pH 10.0 for the fluorimetric assay. Released p-NP was detected spectrophometrically at 405 nm. The fluorescence associated with the release of 4-MU was measured at the excitation wavelength of 365 nm and an emission wavelength of 445 nm. These measurements were performed using an EnVision microplate reader (Perkin Elmer, Waltham, Mass.).

Experiment [8] concerns the target T3, NanB. Kind of experiment: Hydrolysis of p-NP-Neu5Ac by NanB, conventional indirect spectrophotometric method. It counts as biochemical. As to conditions: 37°C, stopped with 0.5 M Na2CO3 pH 9.0, 405 nm. On the procedure: as §1
For experiment [9], the target named is T2, NanC. Description: Hydrolysis of p-NP-Neu5Ac by NanC, conventional indirect spectrophotometric method. Particulars: 37°C, stopped with 0.5 M Na2CO3 pH 9.0, 405 nm. It counts as biochemical. Here is the method: as §1
Experiment [10] relates to NanB. As to conditions: direct method, 30°C, 20 mM MES pH 6.0, 400 nm.
Setting [11] is: first order kinetics up to 500 μM substrate.
[12] abbreviates: first order kinetics up to 1,200 μM substrate.

“Also recorded” adds a separate entry of the source.

As to `O=S(=O)(O)CCNC1CCCCC1` [CHES, 2-n-cyclohexylamino ethane sulfonic acid], the “inhibition of pneumococcal sialidases (in words)” value in experiment [1] is reported as “weak inhibitor”.
In the case of `CC(=O)N[C@H]1[C@H]([C@H](O)[C@H](O)CO)OC(C(=O)O)=C[C@@H]1O` [Neu5Ac2en, 2-deoxy-2,3-didehydro-N-acetylneuraminic acid], the “inhibition of NanA (in words)” value in [2] is “significant inhibition; also recorded: inhibition constants in the micromolar range”. The inhibition constant (Ki) in experiment [3] worked out at 2010 µM.
In the case of `CCC(CC)O[C@@H]1C=C(C(=O)O)C[C@H](N)[C@H]1NC(C)=O` [Oseltamivir carboxylate], the Ki in experiment [2] was 1.77 µM; in experiment [4], more than 7500 µM; in experiment [3] it was more than 7500 µM. Moreover, the “inhibition of NanA (in words)” value in [2] is listed as “significant inhibition; also recorded: inhibition constants in the micromolar range”.
Consider `CC(=O)N[C@H]1[C@H]([C@H](O)[C@H](O)CO)OC(C(=O)O)=C[C@@H]1N=C(N)N` [Zanamivir], for which the Ki in experiment [2] is 720 µM; in experiment [4], more than 7500 µM; in experiment [3], more than 7500 µM. For the same compound, the “inhibition of NanA (in words)” value in [2] is “Very limited inhibitory effects”.
In the case of `CC(=O)N[C@H]1[C@H]([C@H](O)[C@H](O)CO)OC(Oc2ccc([N+](=O)[O-])cc2)(C(=O)O)C[C@@H]1O` (some centres unmarked) [p-NP-Neu5Ac, 2-O-(p-nitrophenyl)-N-acetylneuraminic acid], the “k cat / K m” value in experiment [5] is listed as “(3.5 ± 0.3) × 10^5 M^-1·s^-1”; in experiment [6], “(3.4 ± 0.3) × 10^4 M^-1·s^-1”; in experiment [7], “(8.4 ± 0.9) × 10^4 M^-1·s^-1”; in experiment [8], “(1.1 ± 0.1) × 10^2 M^-1·s^-1”; in [9], “(1.2 ± 0.1) × 10^4 M^-1·s^-1”; in [10], “(2.7 ± 0.3) × 10^2 M^-1·s^-1”. The K m was more than 500 µM in experiment [5] (setting [11]); more than 500 µM in experiment [6] (setting [11]); >1,100 μM in experiment [7] (setting [12]); >1,200 μM in experiment [8] (setting [12]); more than 700 µM in experiment [9] (setting [12]); more than 500 µM in experiment [10] (setting [11]). The k cat in [5] (setting [11]) was more than 175 s⁻¹; in experiment [6] (setting [11]), more than 17 s⁻¹; in experiment [7] (setting [12]), more than 490 s⁻¹; in experiment [8] (setting [12]), more than 11 s⁻¹; in experiment [9] (setting [12]), more than 11 s⁻¹; in experiment [10] (setting [11]) it was more than 0.14 s⁻¹.

In general, Ki refers to the dissociation constant of the complex between target and ligand, obtained from inhibition or displacement. A low value points to tighter binding.
